{"source": "patent US9827309B2", "about": "“Treating cancer with a combination of a PD-1 antagonist and dinaciclib” (Merck Sharp & Dohme Corp., priority 2013, dated 2017)", "origin": "cited, not measured here", "settings": "clinical trials; cited from earlier work", "data": [{"smiles": "CCc1cnn2c(NCc3ccc[n+]([O-])c3)cc(N3CCCC[C@H]3CCO)nc12", "note": "[Dinaciclib, 1-[3-ethyl-7-[[(1-oxido-3-pyridinyl)methyl]amino]pyrazolo[1,5-a]pyrimidin-5-yl]-2(S)-piperidineethanol]", "values": [{"measurement": "most common dose-limiting toxicity", "result": "neutropenia"}]}]}
